From the NIST ThermoML archive (doi:10.1021/je060271a)
± gives the expanded uncertainty stated by the source.

Conditions: 323.15 K, Liquid, Vibrating tube method

`CCCC(=O)OCC(COC(=O)CCC)(COC(=O)CCC)COC(=O)CCC` [pentaerythritol tetrabutyrate] showed a mass density (8815.3 kPa) of 1031.3 ± 1.2 kg/m3, a mass density (8851 kPa) of 1031.3 ± 1.2 kg/m3 and a mass density (8880.8 kPa) of 1031.3 ± 1.2 kg/m3. It also gave a mass density (8916.7 kPa) of 1031.4 ± 1.2 kg/m3, a mass density (8947.2 kPa) of 1031.4 ± 1.2 kg/m3 and a mass density (8977.7 kPa) of 1031.5 ± 1.2 kg/m3. The mass density (9015.1 kPa) was 1031.4 ± 1.2 kg/m3, the mass density (9048.4 kPa) was 1031.5 ± 1.2 kg/m3 and the mass density (9079.8 kPa) was 1031.5 ± 1.2 kg/m3. It also gave a mass density (9105.3 kPa) of 1031.6 ± 1.2 kg/m3, a mass density (9137.4 kPa) of 1031.5 ± 1.2 kg/m3 and a mass density (9181.7 kPa) of 1031.6 ± 1.2 kg/m3. It also gave a mass density (9214.1 kPa) of 1031.5 ± 1.2 kg/m3, a mass density (9239.9 kPa) of 1031.6 ± 1.2 kg/m3 and a mass density (9278.9 kPa) of 1031.6 ± 1.2 kg/m3. For the same compound, the mass density (9312 kPa) was 1031.6 ± 1.2 kg/m3, the mass density (9352.1 kPa) was 1031.7 ± 1.2 kg/m3 and the mass density (9391.1 kPa) was 1031.5 ± 1.2 kg/m3. For the same compound, the mass density (9424.9 kPa) was 1031.7 ± 1.2 kg/m3, the mass density (9459.7 kPa) was 1031.8 ± 1.2 kg/m3 and the mass density (9501.9 kPa) was 1031.8 ± 1.2 kg/m3. The mass density (9536.7 kPa) was 1031.9 ± 1.2 kg/m3, the mass density (9571.9 kPa) was 1031.8 ± 1.2 kg/m3 and the mass density (9607.4 kPa) was 1031.8 ± 1.2 kg/m3. The mass density (9650.6 kPa) was 1031.8 ± 1.2 kg/m3, the mass density (9687.7 kPa) was 1031.8 ± 1.2 kg/m3 and the mass density (9732.6 kPa) was 1032 ± 1.2 kg/m3. The mass density (9765 kPa) was 1032 ± 1.2 kg/m3, the mass density (9791.2 kPa) was 1032 ± 1.2 kg/m3 and the mass density (9822.2 kPa) was 1031.9 ± 1.2 kg/m3. The mass density (9848.9 kPa) was 1032.1 ± 1.2 kg/m3, the mass density (9875.6 kPa) was 1032.1 ± 1.2 kg/m3 and the mass density (9907.5 kPa) was 1032 ± 1.2 kg/m3. The mass density (9935 kPa) was 1032 ± 1.2 kg/m3, the mass density (9961.9 kPa) was 1032.1 ± 1.2 kg/m3 and the mass density (9989 kPa) was 1032.1 ± 1.2 kg/m3. For the same compound, the mass density (10021 kPa) was 1032.1 ± 1.2 kg/m3, the mass density (10048 kPa) was 1032.1 ± 1.2 kg/m3 and the mass density (10082 kPa) was 1032.2 ± 1.2 kg/m3. For the same compound, the mass density (10110 kPa) was 1032.1 ± 1.2 kg/m3, the mass density (10138 kPa) was 1032.2 ± 1.2 kg/m3 and the mass density (10166 kPa) was 1032.2 ± 1.2 kg/m3. It also gave a mass density (10200 kPa) of 1032.2 ± 1.2 kg/m3, a mass density (10228 kPa) of 1032.2 ± 1.2 kg/m3 and a mass density (10262 kPa) of 1032.2 ± 1.2 kg/m3. The mass density (10292 kPa) was 1032.4 ± 1.2 kg/m3, the mass density (10321 kPa) was 1032.3 ± 1.2 kg/m3 and the mass density (10356 kPa) was 1032.4 ± 1.2 kg/m3. It also gave a mass density (10385 kPa) of 1032.5 ± 1.2 kg/m3, a mass density (10415 kPa) of 1032.5 ± 1.2 kg/m3 and a mass density (10445 kPa) of 1032.5 ± 1.2 kg/m3. For the same compound, the mass density (10481 kPa) was 1032.4 ± 1.2 kg/m3, the mass density (10512 kPa) was 1032.5 ± 1.2 kg/m3 and the mass density (10542 kPa) was 1032.4 ± 1.2 kg/m3. The mass density (10579 kPa) was 1032.5 ± 1.2 kg/m3, the mass density (10610 kPa) was 1032.6 ± 1.2 kg/m3 and the mass density (10641 kPa) was 1032.6 ± 1.2 kg/m3. For the same compound, the mass density (10672 kPa) was 1032.6 ± 1.2 kg/m3, the mass density (10710 kPa) was 1032.5 ± 1.2 kg/m3 and the mass density (10742 kPa) was 1032.6 ± 1.2 kg/m3. It also gave a mass density (10774 kPa) of 1032.6 ± 1.2 kg/m3, a mass density (10806 kPa) of 1032.7 ± 1.2 kg/m3 and a mass density (10845 kPa) of 1032.8 ± 1.2 kg/m3. It also gave a mass density (10877 kPa) of 1032.7 ± 1.2 kg/m3, a mass density (10916 kPa) of 1032.7 ± 1.2 kg/m3 and a mass density (10948 kPa) of 1032.7 ± 1.2 kg/m3. For the same compound, the mass density (10982 kPa) was 1032.7 ± 1.2 kg/m3, the mass density (11022 kPa) was 1032.7 ± 1.2 kg/m3 and the mass density (11055 kPa) was 1032.8 ± 1.2 kg/m3. For the same compound, the mass density (11089 kPa) was 1032.8 ± 1.2 kg/m3, the mass density (11123 kPa) was 1032.9 ± 1.2 kg/m3 and the mass density (11165 kPa) was 1032.9 ± 1.2 kg/m3. For the same compound, the mass density (11200 kPa) was 1032.8 ± 1.2 kg/m3.
